# Source: PMC4904354 (Journal of Cerebral Blood Flow & Metabolism, 2015)
# Where two headings read alike, the source gives them in different places.
# Key:
# NMDA receptor [1] = conditions: cited from earlier work
# [2] = cited from earlier work
# NMDA receptor [3] = conditions: cited from earlier work; remark: listed apart in the source
# [4] = molecular target: NMDA receptor ion-channel; conditions: read-out: apparent affinity value against [^3H]MK-801 (Ki); no reference given; cited from earlier work
# [5] = S-ketamine challenge: plasma concentration and tolerability; assay type: in vivo, human
# [6] = test system: N-methyl-D-aspartate receptor; assay type: in vivo, human; conditions: for K1, rate constant of transport, mean (SD) / Ki, net influx rate constant, mean (SD) / VND(K1/k2), nondisplaceable distribution volume, mean (SD): 2T3k_VB model, 90 min data
# [7] = Plasma metabolite analysis of [^11C]GMOM; assay type: in vivo, human; conditions: for parent fraction in plasma: mean ± SD, all scans N = 15
# [8] = followed by prolonged modest decrease until 90 min
# [9] = cerebellum, after S-ketamine 0.3 mgkg^−1 i.v., N = 6
# [10] = frontal cortex, baseline, N = 9
# [11] = occipital cortex, baseline, N = 9
# [12] = parietal cortex, baseline, N = 9
# [13] = striatum, after S-ketamine 0.3 mgkg^−1 i.v., N = 6
# [14] = temporal cortex, baseline, N = 9
# [15] = thalamus, after S-ketamine 0.3 mgkg^−1 i.v., N = 6
# [16] = whole brain gray matter, baseline, N = 9
smiles,measurement,setting,value
CSc1cccc(N(C)C(=N)Nc2cc(SC)ccc2Cl)c1 [[^11C]CNS5161],Kd,NMDA receptor [1],1.9 ± 0.3 nM
CSc1cccc(N(C)C(N)=Nc2cc(SCCF)ccc2Cl)c1 [[[18]F]GE-179],Kd,NMDA receptor [1],2.4 nM
CSc1ccc(Cl)c(NC(=N)N(C)c2cccc(S[11CH3])c2)c1 [[^11C]CNS5161],log P,[2],1.92
CN(C(=N)Nc1cccc2ccccc12)c1cccc(I)c1 [[^123I]CNS1261],Kd,NMDA receptor [1],4.2 ± 0.4 nM
CSc1cccc(N(C)C(N)=Nc2cc(SCC[18F])ccc2Cl)c1 [[[18]F]GE-179],log D7.4,[2]; pH 7.4,2.49
same,mean parent fraction remaining in plasma,NMDA receptor [3]; at 20 min postinjection,50%
same,time of peak uptake in brain TACs,NMDA receptor [3]; [8],around 20 min
CN[C@]1(c2ccccc2Cl)CCCCC1=O [S-ketamine],Ki,[4],~1000 nM
same,mean plasma level of S-ketamine during the blocking scans,"[5]; 0.3 mgkg^−1 i.v., pseudo-steady state, healthy volunteers",56.2 ngml^−1
same,tolerability of the administered dose during scans,"[5]; 0.3 mgkg^−1 i.v., healthy volunteers",able to tolerate
same,mean S-ketamine plasma concentration,"[5]; at the end of the scan, six subjects, 0.3 mg kg^−1 i.v. pseudo-steady state",38 ng/mL
"CSc1ccc(Cl)c(NC(=N)N(C)c2cccc(O[11CH3])c2)c1 [[^11C]GMOM, N-(2-chloro-5-thiomethylphenyl)-N′-(3-[^11C]methoxy-phenyl)-N′-methylguanidine]",log P,[2],2.34
same,"K1, rate constant of transport, mean (SD)",[6]; [9],0.45 (0.06) min^−1
same,"Ki, net influx rate constant, mean (SD)",[6]; [9],0.005 (0.008) min^−1
same,"VND(K1/k2), nondisplaceable distribution volume, mean (SD)",[6]; [9],9.37 (0.98)
same,"K1, rate constant of transport, mean (SD)","[6]; cerebellum, baseline, N = 9",0.46 (0.07) min^−1
same,"Ki, net influx rate constant, mean (SD)","[6]; cerebellum, baseline, N = 9",0.014 (0.010) min^−1
same,"VND(K1/k2), nondisplaceable distribution volume, mean (SD)","[6]; cerebellum, baseline, N = 9",8.43 (2.02)
same,time of peak uptake in brain TACs,[6]; [8],around 20 min
same,"K1, rate constant of transport, mean (SD)",[6]; [10],0.48 (0.07) min^−1
same,"Ki, net influx rate constant, mean (SD)",[6]; [10],0.023 (0.014) min^−1
same,"VND(K1/k2), nondisplaceable distribution volume, mean (SD)",[6]; [10],8.54 (2.00)
same,"K1, rate constant of transport, mean (SD)","[6]; hippocampus, baseline, N = 9",0.36 (0.07) min^−1
same,"Ki, net influx rate constant, mean (SD)","[6]; hippocampus, baseline, N = 9",0.028 (0.012) min^−1
same,"VND(K1/k2), nondisplaceable distribution volume, mean (SD)","[6]; hippocampus, baseline, N = 9",7.82 (2.25)
same,"K1, rate constant of transport, mean (SD)",[6]; [11],0.47 (0.04) min^−1
same,"Ki, net influx rate constant, mean (SD)",[6]; [11],0.021 (0.012) min^−1
same,"VND(K1/k2), nondisplaceable distribution volume, mean (SD)",[6]; [11],8.53 (1.73)
same,"K1, rate constant of transport, mean (SD)",[6]; [12],0.46 (0.05) min^−1
same,"Ki, net influx rate constant, mean (SD)",[6]; [12],0.021 (0.014) min^−1
same,"VND(K1/k2), nondisplaceable distribution volume, mean (SD)",[6]; [12],8.81 (1.98)
same,"K1, rate constant of transport, mean (SD)",[6]; [13],0.50 (0.08) min^−1
same,"Ki, net influx rate constant, mean (SD)",[6]; [13],0.007 (0.007) min^−1
same,"VND(K1/k2), nondisplaceable distribution volume, mean (SD)",[6]; [13],9.88 (0.86)
same,"K1, rate constant of transport, mean (SD)","[6]; striatum, baseline, N = 9",0.50 (0.06) min^−1
same,"Ki, net influx rate constant, mean (SD)","[6]; striatum, baseline, N = 9",0.021 (0.015) min^−1
same,"VND(K1/k2), nondisplaceable distribution volume, mean (SD)","[6]; striatum, baseline, N = 9",9.15 (1.85)
same,"K1, rate constant of transport, mean (SD)",[6]; [14],0.41 (0.06) min^−1
same,"Ki, net influx rate constant, mean (SD)",[6]; [14],0.020 (0.012) min^−1
same,"VND(K1/k2), nondisplaceable distribution volume, mean (SD)",[6]; [14],8.63 (2.06)
same,"K1, rate constant of transport, mean (SD)",[6]; [15],0.52 (0.09) min^−1
same,"Ki, net influx rate constant, mean (SD)",[6]; [15],0.006 (0.007) min^−1
same,"VND(K1/k2), nondisplaceable distribution volume, mean (SD)",[6]; [15],11.32 (1.58)
same,"K1, rate constant of transport, mean (SD)","[6]; thalamus, baseline, N = 9",0.50 (0.08) min^−1
same,"Ki, net influx rate constant, mean (SD)","[6]; thalamus, baseline, N = 9",0.024 (0.019) min^−1
same,"VND(K1/k2), nondisplaceable distribution volume, mean (SD)","[6]; thalamus, baseline, N = 9",10.14 (2.56)
same,"K1, rate constant of transport, mean (SD)",[6]; [16],0.45 (0.05) min^−1
same,"Ki, net influx rate constant, mean (SD)",[6]; [16],0.021 (0.012) min^−1
same,"VND(K1/k2), nondisplaceable distribution volume, mean (SD)",[6]; [16],8.47 (1.88)
same,parent fraction in plasma,[7]; at 5 min p.i.,0.80 ± 0.06
same,mean parent fraction remaining in plasma,[7]; at 20 min postinjection,50%
same,parent fraction in plasma,[7]; at 60 min p.i.,0.21 ± 0.08
same,nonpolar metabolites fraction in plasma,[7]; at 90 min p.i.,1.5 ± 2.0%
